As usually defined, the IC50 is the concentration that inhibits the measured activity by half. Lower therefore signals higher potency. By GI50 is commonly meant the concentration at which growth is held to half of that of the control.

Experiment [1] deals with HDAC2 (Homo sapiens, UniProt Q92769). As to the kind of experiment: HDAC biochemical activity measurement (fluorescent substrate deacetylation).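 Also: HDAC2 enzyme with an acetyl-lysine fluorescent substrate, then developer added, fluorescence read at excitation 360 nm and emission 460 nm, inhibition measured across several compound concentrations.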 The settings on record: 37° C. 30 minutes.
Sequence of HDAC2 (Q92769 whole entry, species assumed): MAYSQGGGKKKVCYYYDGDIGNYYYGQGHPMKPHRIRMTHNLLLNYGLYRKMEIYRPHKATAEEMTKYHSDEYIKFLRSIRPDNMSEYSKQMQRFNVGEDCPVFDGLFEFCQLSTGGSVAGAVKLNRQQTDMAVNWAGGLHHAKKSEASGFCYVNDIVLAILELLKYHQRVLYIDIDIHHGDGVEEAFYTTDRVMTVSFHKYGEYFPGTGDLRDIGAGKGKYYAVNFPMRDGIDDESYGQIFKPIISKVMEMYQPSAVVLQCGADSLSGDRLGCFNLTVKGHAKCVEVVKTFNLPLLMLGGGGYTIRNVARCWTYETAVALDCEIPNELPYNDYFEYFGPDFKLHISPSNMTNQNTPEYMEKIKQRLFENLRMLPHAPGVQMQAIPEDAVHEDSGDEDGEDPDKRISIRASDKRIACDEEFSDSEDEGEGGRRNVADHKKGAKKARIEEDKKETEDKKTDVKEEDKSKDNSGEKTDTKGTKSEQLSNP
Experiment [2] deals with BGC-823 (human gastric cancer cells). As to the kind of experiment: MTT cancer cell growth inhibition. The following applies: Homo sapiens, BGC-823, 72 h, MTT, 72 hours incubation, read-out: GI50 BG. The class given is cell-based. The method in brief:
(§1)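 Using a 72 h MTT format, triplicate wells of 1500 cells received compound concentrations from 10^−5 to 10^−10 M. Formazan was read at 570 nm after DMSO dissolution, and GI50 was derived from viability.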

Experiment [3] has as its system KBM5-T315I (human chronic myelogenous leukemia). As to the kind of experiment: MTT cancer cell growth inhibition. The settings on record: Homo sapiens, 72 h, MTT, 72 hours incubation, KBM5-T315I cells; read-out: GI50 KBM5-T315I. The experiment is classed as cell-based. The method in brief:
as §1

The subject of experiment [4] is A549 (human lung cancer cells). As to the kind of experiment: MTT cancer cell growth inhibition. The class given is cell-based. The following applies: Homo sapiens, A549, 72 h, MTT, 72 hours incubation, read-out: GI50 A54. The method in brief: as §1
Experiment [5] relates to U937 (human leukemia cells). As to the kind of experiment: MTT cancer cell growth inhibition. The settings on record: Homo sapiens, U-937, 72 h, MTT, 72 hours incubation, read-out: GI50 U93. The class given is cell-based. The method in brief:
as §1

Experiment [6] relates to Huh-7 (human hepatoma cells). As to the kind of experiment: MTT cancer cell growth inhibition. The following applies: Homo sapiens, Huh-7, 72 h, MTT, 72 hours incubation, Huh-7 cells; read-out: GI50 Huh-7. The experiment is classed as cell-based. The method in brief: as §1
Experiment [7] concerns PANC-1 (Pac-1, human pancreatic cancer cells). As to the kind of experiment: MTT cancer cell growth inhibition. The class given is cell-based. The following applies: Homo sapiens, PANC-1, 72 h, MTT, 72 hours incubation, read-out: GI50 PAN. The method in brief:
as §1

Experiment [8] has as its system SGC-7901 (human gastric cancer cells). The experiment in a line: MTT cancer cell growth inhibition. The experiment is classed as cell-based. The settings on record: Homo sapiens, SGC-7901, 72 h, MTT, 72 hours incubation, SGC-7901 cells; read-out: GI50 SGC-7901. The method in brief:
as §1

In experiment [9] the test system is K562 (human leukemia cells). The experiment in a line: MTT cancer cell growth inhibition. The class given is cell-based. The following applies: Homo sapiens, K562, 72 h, MTT, 72 hours incubation, K562 cells; read-out: GI50 K562. The method in brief:
as §1

In experiment [10] the test system is HT1080 (human fibrosarcoma cells). The experiment in a line: MTT cancer cell growth inhibition. The following applies: Homo sapiens, HT-1080, 72 h, MTT, 72 hours incubation, read-out: GI50 HT1. The experiment is classed as cell-based. The method in brief: as §1
Experiment [11] has as its system H1975 (non-small cell lung adenocarcinoma). The experiment in a line: MTT cancer cell growth inhibition. The experiment is classed as cell-based. The settings on record: Homo sapiens, NCI-H1975, 72 h, MTT, 72 hours incubation, H1975 cells; read-out: GI50 H1975. The method in brief:
as §1

The subject of experiment [12] is MOLT-4 (human acute lymphoblastic leukemia cells). As to the kind of experiment: MTT cancer cell growth inhibition. The class given is cell-based. The following applies: Homo sapiens, MOLT-4, 72 h, MTT, 72 hours incubation, read-out: GI50 Mol. The method in brief: as §1
Experiment [13] relates to N-87 (human gastric cancer cells). The experiment in a line: MTT cancer cell growth inhibition. The class given is cell-based. The following applies: Homo sapiens, 72 h, MTT, 72 hours incubation, N-87 cells; read-out: GI50 N-87. The method in brief:
as §1

Experiment [14] relates to lncap (prostate cancer cells). As to the kind of experiment: MTT cancer cell growth inhibition. The class given is cell-based. The settings on record: Homo sapiens, LNCaP, 72 h, MTT, 72 hours incubation, read-out: GI50 lnca. The method in brief: as §1
The subject of experiment [15] is DU145 (human prostate cancer cells). As to the kind of experiment: MTT cancer cell growth inhibition. The experiment is classed as cell-based. The following applies: Homo sapiens, DU-145, 72 h, MTT, 72 hours incubation, read-out: GI50 Du1. The method in brief: as §1
Experiment [16] deals with Bel-7402 (human hepatoma cells). As to the kind of experiment: MTT cancer cell growth inhibition. The experiment is classed as cell-based. The settings on record: Homo sapiens, Bel-7402, 72 h, MTT, 72 hours incubation, Bel-7402 cells; read-out: GI50 Bel-7402. The method in brief: as §1
The subject of experiment [17] is KBM-5 (human chronic myelogenous leukemia). The experiment in a line: MTT cancer cell growth inhibition. The class given is cell-based. The following applies: Homo sapiens, KBM5, 72 h, MTT, 72 hours incubation, KBM-5 cells; read-out: GI50 KBM-5. The method in brief: as §1
The subject of experiment [18] is Hela (human cervical cancer cells). The experiment in a line: MTT cancer cell growth inhibition. The following applies: Homo sapiens, HeLa, 72 h, MTT, 72 hours incubation, read-out: GI50 Hela. The experiment is classed as cell-based. The method in brief: as §1
For experiment [19], the system named is MCF-7 (human breast cancer cells). As to the kind of experiment: MTT cancer cell growth inhibition. The class given is cell-based. The following applies: Homo sapiens, MCF7, 72 h, 72 hours incubation, read-out: GI50 MCF. The method in brief: as §1
Experiment [20] relates to MDA-MB-231 (breast cancer cells). As to the kind of experiment: MTT cancer cell growth inhibition. The settings on record: Homo sapiens, MDA-MB-231, 72 h, read-out: GI50 MDA-MB-231, MTT, 72 hours incubation, MDA-MB-231 cells. The class given is cell-based. The method in brief:
as §1

Experiment [21] concerns HCC827 (human non-small cell lung cancer cells). The experiment in a line: MTT cancer cell growth inhibition. The class given is cell-based. The settings on record: Homo sapiens, HCC827, 72 h, MTT, 72 hours incubation, HCC827 cells; read-out: GI50 HCC827. The method in brief:
as §1

Read-outs that look alike come from different tables or passages of the source.

`C/C=C1\NC(=O)c2cc(F)cc(n2)CNC(=O)C[C@@H](/C=C/CCSC(=O)CC)OC(=O)[C@H](C(C)C)NC1=O` [Compound 46] gave an IC50 in [1] of 41 nM. Moreover, the GI50 in experiment [2] was found to be 40 nM; in experiment [3] it was 47 nM; in experiment [4] it was 50 nM; in experiment [5], 30 nM; in [6], 35 nM; in [7], 50 nM. Further, the GI50 was determined as 57 nM in [8]; 35 nM in experiment [9]; 50 nM in experiment [10]; 37 nM in experiment [11]; 30 nM in [12]; 43 nM in experiment [13]. The GI50 in [14] came out at 30 nM; in experiment [15], 30 nM; in experiment [16], 52 nM; in experiment [17], 91 nM; in experiment [18] it was 90 nM; in experiment [19] it was 40 nM. For the same molecule, the GI50 in [20] stood at 35 nM; in [21] it was 52 nM.
In turn, `CC(=O)SCC/C=C/[C@@H]1CC(=O)NCc2cccc(n2)C(=O)NC(=C(C)C)C(=O)N[C@@H](C(C)C)C(=O)O1` [Compound 20] had an IC50 in [1] of 77 nM. The GI50 in experiment [2] came to 1100 nM; in [3], 33 nM; in [4] it was 320 nM; in experiment [5] it was 20200 nM; in [6] it was 72 nM; in experiment [7] it was 10100 nM. Moreover, the GI50 in experiment [8] turned out to be 63 nM; in [9] it was 24 nM; in experiment [10] it was 980 nM; in [11], 35 nM; in [12] it was 130 nM; in experiment [13], 62 nM. In addition, the GI50 in experiment [14] was determined as 5100 nM; in experiment [15] it was 1980 nM; in experiment [16] it was 86 nM; in [17], 61 nM; in experiment [18] it was 10 nM; in [19], 1900 nM. Moreover, the GI50 in experiment [20] turned out to be 96 nM; in experiment [21], 52 nM.
As to `C/C=C1\NC(=O)c2cc(F)cc(n2)CNC(=O)C[C@@H](/C=C/CCSC=O)OC(=O)[C@H](C(C)C)NC1=O` [Compound 52], the IC50 in experiment [1] was determined as 62 nM. Further, the GI50 in [2] came to 50 nM; in [3], 67 nM; in [4], 50 nM; in experiment [5], 60 nM; in [6], 31 nM; in experiment [7] it was 90 nM. The GI50 in experiment [8] amounted to 51 nM; in [9] it was 27 nM; in experiment [10] it was 90 nM; in experiment [11], 61 nM; in experiment [12] it was 30 nM; in experiment [13], 53 nM. For the same molecule, the 50% growth inhibitory concentration (GI50) came out at 30 nM in experiment [14]; 20 nM in [15]; 91 nM in experiment [16]; 88 nM in experiment [17]; 80 nM in experiment [18]; 60 nM in experiment [19]. For the same molecule, the GI50 in experiment [20] was 31 nM; in experiment [21] it was 91 nM.
Regarding `C/C=C1\NC(=O)c2cccc(n2)CNC(=O)C[C@@H](/C=C/CCSC(C)=O)OC(=O)[C@H](CCCCNC(=O)OCC2c3ccccc3-c3ccccc32)NC1=O` [Compound 16], the IC50 in experiment [1] came to 56 nM. The GI50 was found to be 2100 nM in experiment [2]; 19 nM in experiment [3]; 4200 nM in experiment [4]; 17900 nM in [5]; 43 nM in experiment [6]; 4100 nM in experiment [7]. Moreover, the concentration for 50% growth inhibition (GI50) in experiment [8] worked out at 51 nM; in experiment [9], 25 nM; in [10] it was 1300 nM; in experiment [11], 39 nM; in experiment [12] it was 700 nM; in experiment [13], 27 nM. Moreover, the GI50 was 82100 nM in [14]; 6100 nM in [15]; 91 nM in [16]; 82 nM in experiment [17]; 21000 nM in experiment [18]; 49500 nM in experiment [19]. For the same molecule, the values for the GI50 in experiment [20] and in experiment [21] were 93 nM and 49 nM, respectively.
For `C/C=C1\NC(=O)c2cc(SCCC)cc(n2)CNC(=O)C[C@@H](/C=C/CCSC(=O)CCCCCCC)OC(=O)[C@H](CC)NC1=O` [Compound 175], the IC50 in experiment [1] turned out to be 32 nM. The GI50 in [2] (BGC-823 cells) was 20 nM; in experiment [3], 47 nM; in experiment [4] (A549 cells) it was 100 nM; in experiment [5] (U937 cells), 40 nM; in experiment [6], 27 nM; in experiment [7] (PANC-1 cells), 50 nM. Moreover, the GI50 in experiment [8] came out at 62 nM; in experiment [9], 39 nM; in [10] (HT1080 cells) it was 50 nM; in experiment [11], 42 nM; in experiment [12] (MOLT-4 cells), 20 nM; in [13] it was 49 nM. Moreover, the 50% growth inhibitory concentration (GI50) in experiment [14] (lncap cells) was found to be 80 nM; in experiment [15] (DU145 cells) it was 30 nM; in [16] it was 105 nM; in [17], 42 nM; in [18] (Hela cells) it was 10 nM; in experiment [19] (MCF-7 cells) it was 20 nM. Moreover, the GI50 amounted to 29 nM in experiment [20] and 13 nM in experiment [21].

The values are drawn from patent US10065990B2, “Cyclic peptide compound, and preparation method, pharmaceutical composition and use thereof” (HANGZHOU GUANYU BIO-MEDICAL CO., LTD, priority 2013, dated 2018).
